This is an account of results in article PMC2823781, “The X-Ray Crystal Structure of Escherichia coli Succinic Semialdehyde Dehydrogenase; Structural Insights into NADP^+/Enzyme Interactions” (PLoS ONE, 2010).

Assay [1] concerns the target T1, E. coli SSADH (gabD gene product) (Escherichia coli, UniProt P25526).
T1 construct: expressed in E. coli BL21(DE3) pLysS; homotetramer, 481 residues per monomer in crystal; single amino acid change versus database gabD, not specified
Nature of the assay: fluorometric NADPH formation (ex […] nm, em […] nm). It counts as biochemical. The settings on record: 1.1 mM NADP+, 100 mM Na phosphate pH 8.0, 30 °C; varied substrate SSA (range printed as 0–400 mM), substrate not named beside Km.

The target in assay [2] is Escherichia coli succinic semialdehyde dehydrogenase (gabD gene product, NADP+-dependent) (E. coli) (UniProt P25526). As to the kind of experiment: SEC; analytical size-exclusion chromatography of purified recombinant SSADH; data not shown.

In general, Km refers to the concentration of substrate that gives half-maximal velocity. Usually stoichiometry N stands for a count of units in the complex or per binding partner.

`O=CCCC(=O)O` [SSA, succinic semialdehyde]: the Km in assay [1] turned out to be 16.9 ± 2.2 µM.
For the compound “Escherichia coli succinic semialdehyde dehydrogenase (gabD gene product, NADP+-dependent) (from UniProt P25526 1-482) (enzyme)”, the stoichiometry N in assay [2] amounted to 4.
